Starred links: 1 amine or outer side, 2 acyl side, 3 side chain; linkers in the order of their positions; H or OH if unused. Non-standard residues stand in square brackets, D forms with d. Residues, ends and D or L forms follow the SMILES beside them. Groups on a side chain read outwards from the residue. γGlu = O=C(O)[C@H](CCC(=O)[*:2])N[*:1]; Dap = NC[C@H](N)C(=O)O; Aoc = NCCCCCCCC(=O)O; CO = O=C([*:1])[*:2]
What was measured:
[1] = target: T1, PSMA on LNCaP cells (Homo sapiens, UniProt Q04609); assay: Spacer-dependent binding studies of DUPA-Linker-99mTc compounds on LNCaP cells; conditions: 37° C., 1 hour, 0 nM-1280 nM, read-out: Kd from cell bound radioactivity versus concentration of DUPA-Linker-99Tc imaging agents
T1 construct: LNCaP cells (a human prostate cancer cell line over-expressing PSMA); host or cells: LNCaP
T1 sequence (Q04609 whole entry): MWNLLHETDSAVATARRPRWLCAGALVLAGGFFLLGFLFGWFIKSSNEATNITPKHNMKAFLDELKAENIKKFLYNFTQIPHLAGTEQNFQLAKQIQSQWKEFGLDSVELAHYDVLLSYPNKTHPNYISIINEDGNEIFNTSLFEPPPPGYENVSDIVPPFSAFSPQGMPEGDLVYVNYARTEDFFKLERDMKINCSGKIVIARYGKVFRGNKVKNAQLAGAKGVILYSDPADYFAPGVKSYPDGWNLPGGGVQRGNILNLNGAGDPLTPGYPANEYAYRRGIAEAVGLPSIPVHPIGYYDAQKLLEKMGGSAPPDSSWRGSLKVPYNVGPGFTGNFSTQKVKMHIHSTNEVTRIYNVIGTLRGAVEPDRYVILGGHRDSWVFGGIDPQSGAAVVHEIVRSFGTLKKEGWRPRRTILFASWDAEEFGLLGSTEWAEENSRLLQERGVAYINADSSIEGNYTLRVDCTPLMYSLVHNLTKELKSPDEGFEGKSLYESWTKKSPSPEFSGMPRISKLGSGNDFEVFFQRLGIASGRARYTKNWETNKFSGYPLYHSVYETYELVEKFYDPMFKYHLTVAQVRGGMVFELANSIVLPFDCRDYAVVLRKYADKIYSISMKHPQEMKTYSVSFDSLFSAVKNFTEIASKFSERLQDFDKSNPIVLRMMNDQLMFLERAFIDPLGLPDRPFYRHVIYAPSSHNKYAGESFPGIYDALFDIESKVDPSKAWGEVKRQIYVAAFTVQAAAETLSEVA
Experimental: Cells were then incubated with increasing concentrations of SK60-99 mTc (zero atom spacer), SK62-99 mTc (7 atom spacer), SK28-99 mTc (14 atom spacer), SK38-99 mTc (16 atom spacer) and SK57-99 mTc (24 atom spacer) from 0 nM-1280 nM (triplicates for each concentration) in a 5%-CO2 atmosphere at 37° C. for 1 hour. Also, in separate plates, cells was incubated with 50 uM PMPA in a 5%-CO2 atmosphere at 37° C. for 30 minutes and then incubated with increasing concentration of SK60-99 mTc (zero atom spacer), SK62-99 mTc (7 atom spacer), SK28-99 mTc (14 atom spacer), SK38-99 mTc (16 atom spacer) and SK57-99 mTc (24 atom spacer) from 0 nM-1280 nM (triplicates for each concentration) in a 5%-CO2 atmosphere at 37° C. for 1 hour (competition studies; data not shown). […] The plot of cell bound radioactivity verses concentration of the radiolabeled compound was used to calculate the Kd value. The plot of % saturation verses concentration of the radiolabeled compound as well as the plot for Kd verses spacer length are shown (FIGS. 4 and 5).

[2] = target: T1, PSMA on LNCaP cells; assay: In vitro binding studies using LNCaP cells and SK28-99mTc, with and without excess PMPA; conditions: 37° C., 1 hour, 0 nM-450 nM, read-out: Kd from cell bound radioactivity versus concentration
Experimental: Cells of one 24-well plate were incubated with increasing concentrations of SK28-99 mTc from 0 nM-450 nM (triplicates for each concentration) in a 5%-CO2 atmosphere at 37° C. for 1 hour. Cells of the second 24-well plate were incubated with 50 uM PMPA in a 5%-CO2 atmosphere at 37° C. for 30 minutes, then incubated with increasing concentrations of SK28-99 mTc from 0 nM-450 nM (triplicates for each concentration) in a 5%-CO2 atmosphere at 37° C. for 1 hour (competition study). […] The competition study was used to determine the binding specificity of the ligand (DUPA) to the PSMA (FIG. 1).
LNCaP cells (150,000 cells/well) were seeded onto 24-well Falcon plates and allowed to form confluent monolayers over 48 h. Spent medium in each well was replaced with fresh medium (0.5 mL) containing increasing concentrations of DUPA-99 mTc in the presence (▴) or absence (▪) of excess PMPA. After incubating for 1 h at 37° C., cells were rinsed with culture medium (2×1.0 mL) and tris buffer (1×1.0 mL) to remove any unbound radioactivity. After suspending cells in tris buffer (0.5 mL), cell bound radioactivity was counted using a γ-counter (Packard, Packard Instrument Company). The dissociation constant (KD) was calculated using a plot of cell bound radioactivity versus the concentration of the radiotracer using nonlinear regression in GraphPad Prism 4. Error bars represent 1 standard deviation (n=3). […]

[3] = target: T1, PSMA on LNCaP cells; assay: Quantification of PSMA molecules on LNCaP cells (cell bound radioactivity at saturation); assay type: cell-based; conditions: for cell bound radioactivity at the saturation point: 1 hour
Experimental: Cells were then incubated with increasing concentrations of SK28-99 mTc from 0 nM-450 nM (triplicates for each concentration) in a 5%-CO2 atmosphere at 4° C. or at 37° C. for 1 hour. […] The radioactivity of a 30 nM sample of SK28-99 mTc (20 uL) was counted. At 4° C. (to prevent endocytosis of PSMA), the number of moles in the 30 nM sample=30 nM×20 uL=(30×10-9 mol/L)×(20×10-6 L)=6×10-13 mol. The number of atoms in the 30 nM sample=(6×10-13 mol)×(6.023×1023 atom/mol)=3.6×1011 atom. The radio count of 20 uL of the 30 nM sample=20477 cpm (cpm/atom=3.6×1011/20477=1.76×107). The cell bound radioactivity at the saturation point at 4° C.=12 000 cpm. The number of atoms at the saturation point=(1.76×107 atom)×(12 000 cpm). The number of cells/well=245,000.
The cell bound radioactivity at the saturation point at 37° C.=33,000 cpm (approximately three fold higher than at 4° C.).

[4] = target: PSMA (Homo sapiens, UniProt Q04609); conditions: urea PSMA ligands of formula drawing 51, R^1 varied; cited from earlier work
PSMA, sequence (Q04609 whole entry, species assumed): as the sequence (Q04609 whole entry) above

| SMILES | Kd [1] [nM] | Ki [4] [nM] | further results |
| --- | --- | --- | --- |
| N[C@@H](CNC(=O)CC[C@H](NC(=O)N[C@@H](CCC(=O)O)C(=O)O)C(=O)O)C(=O)N[C@@H](CC(=O)O)C(=O)N[C@@H](CS)C(=O)O [0-atom linker] (H-[Dap]([γGlu-CO-Glu])-Asp-Cys-OH) | 171 | – | – |
| N[C@@H](CNC(=O)[C@H](Cc1ccccc1)NC(=O)CC[C@H](NC(=O)CC[C@H](NC(=O)N[C@@H](CCC(=O)O)C(=O)O)C(=O)O)C(=O)O)C(=O)N[C@@H](CC(=O)O)C(=O)N[C@@H](CS)C(=O)O [7-atom linker] (H-[Dap]([Phe-γGlu-γGlu-CO-Glu])-Asp-Cys-OH) | 68 | – | – |
| N[C@@H](CNC(=O)CC[C@H](NC(=O)[C@H](Cc1ccccc1)NC(=O)CCCCCCCNC(=O)CC[C@H](NC(=O)N[C@@H](CCC(=O)O)C(=O)O)C(=O)O)C(=O)O)C(=O)N[C@@H](CC(=O)O)C(=O)N[C@@H](CS)C(=O)O [16-atom linker] (H-[Dap]([γGlu-Phe-Aoc-γGlu-CO-Glu])-Asp-Cys-OH) | 40 | – | – |
| N[C@@H](CNC(=O)[C@H](Cc1ccccc1)NC(=O)[C@H](Cc1ccccc1)NC(=O)CCCCCCCNC(=O)CC[C@H](NC(=O)N[C@@H](CCC(=O)O)C(=O)O)C(=O)O)C(=O)N[C@@H](CC(=O)O)C(=O)N[C@@H](CS)C(=O)O [SK28-^99mTc, metal not drawn] (H-[Dap]([Phe-Phe-Aoc-γGlu-CO-Glu])-Asp-Cys-OH) | 15 | – | Kd [2]: 18.1 nM; cell bound radioactivity at saturation, 37° C. relative to 4° C. [3]: approximately three; cell bound radioactivity at the saturation point ([3]; 4° C.): 12 000 cpm; cell bound radioactivity at the saturation point ([3]; 37° C.): 33,000 cpm |
| O=C(O)CCC(NC(=O)NC(CS)C(=O)O)C(=O)O (stereo not shown) [drawing 52 (R = H)] | – | 6.9 | – |
| CC(C)(C)SCC(NC(=O)NC(CCC(=O)O)C(=O)O)C(=O)O (stereo not shown) [drawing 52 (R = tert-Bu)] | – | 29 | – |

Reference: US20110288152A1, “PSMA BINDING LIGAND-LINKER CONJUGATES AND METHODS FOR USING” (Purdue Research Foundation, priority 2008, published 2011)
